Results from US20150258082A1, “COMBINATION THERAPY WITH GLUTAMINASE INHIBITORS” (priority 2014, published 2015).
Read-outs that look alike come from different tables or passages of the source. Blank lines part the entries; values can stand above or below the compound they belong to.

What was measured:
RPMI-8226 cells = experiment: Anti-proliferative activity in multiple myeloma cell line RPMI-8226 (Cell Titer Glo, 72 hrs); format: cell-based
Description: Multiple myeloma cell lines RPMI-8226 and MM1S were seeded in 96-well plates at a density of 10,000 cells/well. […] Cells were incubated for 72 hrs at 37° C. with 5% CO2 and analyzed for antiproliferative effects by Cell Titer Glo (Promega). Cell proliferation (% of DMSO control) was determined by comparing the Cell Titer Glo signal (rfu) of compound 670-, lenalidomide-, or pomalidomide-treated cells versus DMSO treated cells. Cell viability (% DMSO of control) was plotted against compound concentration and resulting curves were fit using a four-parameter dose response to determine IC50 values.

P493-6 (myc "on") cells = experiment: Cell Proliferation Assay, P493-6 cells, 72 hrs; format: cell-based
Description: For compound assay, P493-6 cells were plated in 96-well V-bottom plates on the day of compound addition in 50 μl of growth media at a cell density of 200,000 cells/ml (10,000 cells/well). Compounds were serially diluted in 100% DMSO at 200-times the final concentration. Compounds were diluted 100-fold into growth media and then 50 μl of this mixture was added to cell plates making the final concentration of DMSO 0.5%. Cells were incubated with compound for 72 hrs at 37° C. with 5% CO2 and analyzed for antiproliferative effects either by Cell Titer Glo (Promega) or FACS analysis using the Viacount (Millipore) kit on the Guava instrument.

[1] = target: T1, recombinant form of Glutaminase 1 (GAC) (Homo sapiens, UniProt O94925); experiment: Recombinant Enzyme Assay (no preincubation); format: biochemical; conditions: read-out: GAC Delta N2 IC50 no preinc
T1 sequence (O94925 137-598 isoform O94925-3 limits assumed): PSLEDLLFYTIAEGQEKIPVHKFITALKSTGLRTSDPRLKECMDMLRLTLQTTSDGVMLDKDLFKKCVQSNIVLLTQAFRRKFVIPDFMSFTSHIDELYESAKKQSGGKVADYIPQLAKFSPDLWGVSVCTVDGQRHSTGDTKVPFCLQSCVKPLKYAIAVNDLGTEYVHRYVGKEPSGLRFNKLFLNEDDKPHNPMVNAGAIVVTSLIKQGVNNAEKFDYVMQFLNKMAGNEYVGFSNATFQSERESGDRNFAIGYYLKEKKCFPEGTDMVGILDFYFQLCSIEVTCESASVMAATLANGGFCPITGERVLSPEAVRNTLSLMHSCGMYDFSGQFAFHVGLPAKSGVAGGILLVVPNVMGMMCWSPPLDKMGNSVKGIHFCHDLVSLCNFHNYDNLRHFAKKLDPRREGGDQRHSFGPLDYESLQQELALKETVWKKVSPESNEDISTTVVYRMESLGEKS
Description: Compounds were assessed for their ability to inhibit the enzymatic activity of a recombinant form of Glutaminase 1 (GAC) using a biochemical assay that couples the production of glutamate (liberated by GAC) to glutamate dehydrogenase (GDH) and measuring the change in absorbance for the reduction of NAD^+ to NADH. […] Enzymatic reaction was started with the addition of 50 μL of enzyme solution (50 mM Tris-HCl pH 8.0, 0.2 mM EDTA, 150 mM K2HPO4, 0.1 mg/ml BSA, 1 mM DTT, 10 ppm antifoam, 4 units/ml GDH, 4 mM adenosine diphosphate, and 4 nM GAC) and read in a Molecular Devices M5 plate reader at 20° C. The plate reader was configured to read absorbance (λ=340 nm) in kinetic mode for 15 minutes. Data was recorded as milli-absorbance units per minute and slopes were compared to a control compound and a DMSO-only control on the same plate. Compounds with slopes less than the DMSO control were considered inhibitors and plate variability was assessed using the control compound.

[2] = tested on: RPMI-8226 multiple myeloma xenograft; experiment: Multiple myeloma xenograft study, compound 670 and lenalidomide; format: in vivo, mice; conditions: compound 670 200 mg/kg oral BID + lenalidomide 30 mg/kg oral QD, 24 days; P<0.0001 vs vehicle and lenalidomide alone, P<0.01 vs CB-839 alone
Description: Female scid/beige mice (n=40) age 7-8 weeks were implanted subcutaneously with 3×10^7 RPMI-8226 multiple myeloma cells per mouse mixed 1:1 with Matrigel. […] Tumors were measured with calipers three times per week and tumor volume calculated using the formula tumor volume (mm^3)=(a×b^2/2) where ‘b’ is the smallest diameter and ‘a’ is the largest perpendicular diameter. ****P-value<0.0001 (One-way ANOVA vs. vehicle and vs. Lenalidomide alone) **P-value<0.01 (One-way ANOVA vs. CB-839 alone).

[3] = tested on: MM1S cells and RPMI-8226 cells; experiment: Combination of compound 670 with pomalidomide or lenalidomide, cell survival and combination index; format: cell-based; conditions: 72 hours; cells resistant to pomalidomide or lenalidomide or not; combination index by Calcusyn
Description: At the end of the incubation, cell viability was measured using Cell Titer Glo as per manufacturer's protocol (Promega, Madison, Wis.). Measured values for compound-treated cells were normalized to DMSO-treated cells and data is reported as a cell survival ratio with a value of 1 (one) corresponding to maximum cell survival and a value of 0 (zero) corresponding to no cell survival. Cell survival ratios for all compound treatments are represented as bar graphs. Combination indices were calculated using the Calcusyn program (biosoft.com) and reported for individual mixtures of compound 670 and either pomalidomide or lenalidomide. Compound mixtures that produced a synergistic anti-tumor activity are highlighted.

[4] = tested on: RPMI-8226 multiple myeloma xenograft; experiment: Multiple myeloma xenograft study with CB-839, pomalidomide and combination; format: in vivo, mice; conditions: CB-839 200 mg/kg oral BID + pomalidomide 1 mg/kg oral QD; P<0.01
Description: Female scid/beige mice (age 7-9 weeks) were implanted subcutaneously with 1×10^7 RPMI-8226 myeloma cells mixed 1:1 with matrigel. Tumors were measured with calipers three times per week and tumor volume calculated using the formula tumor volume (mm^3)=(a×b^2/2) where ‘b’ is the smallest diameter and ‘a’ is the largest perpendicular diameter.

[5] = target: T1, recombinant form of Glutaminase 1 (GAC); experiment: Recombinant Enzyme Assay - Time Dependence (60 min preincubation); format: biochemical
Description: The enzyme/compound mix was sealed with sealing foil (USA Scientific) and allowed to incubate, with mild agitation, for 60 minutes at 20° C. Enzymatic reaction was started with the addition of 50 μL of substrate solution (50 mM Tris-HCl pH 8.0, 0.2 mM EDTA, 150 mM K2HPO4, 0.1 mg/ml BSA, 1 mM DTT, 20 mM L-glutamine, 2 mM NAD^+, and 10 ppm antifoam) and read in a Molecular Devices M5 plate reader at 20° C. The plate reader was configured to read absorbance (λ=340 nm) in kinetic mode for 15 minutes. Data was recorded as milli-absorbance units per minute and slopes were compared to a control compound and a DMSO-only control on the same plate. Compounds with slopes less than the DMSO control were considered inhibitors and plate variability was assessed using the control compound.

[6] = P493-6, 72 h, read-out: Cell prolif P493 72h IC50, P493 cells, 72h

SMILES: Nc1cccc2c1CN(C1CCC(=O)NC1=O)C2=O (centres unmarked) [lenalidomide]
- sensitivity of RPMI-8226 myeloma cells to the agent (RPMI-8226 cells): resistant

SMILES: O=C(OCCCN1CCOCC1)OCN(C(=O)Cc1ccccc1)c1nnc(CCSCCc2nnc(N(COC(=O)OCCCN3CCOCC3)C(=O)Cc3ccccc3)s2)s1 [compound 28]
- IC50 (P493-6 (myc "on") cells; [6]): 1000 nM

SMILES: C=C(C(=O)Nc1nnc(CCCCc2nnc(NC(=O)C(COC(=O)CCN3CCOCC3)c3ccccc3)s2)s1)c1ccccc1 (centres unmarked) [compound 281]
- IC50 (P493-6 (myc "on") cells; [6]): 660 nM

SMILES: O=C(Cc1ccc(Cl)c(CC(F)(F)F)c1)Nc1ccc(CCCCc2nnc(NC(=O)Cc3ccccn3)s2)nn1 [compound 721]
- IC50 (P493-6 (myc "on") cells; P493-6, 72 h, read-out: Cell prolif P493 72h IC50, P493-6 cells, 72 h): 22 nM

SMILES: O=C(COC(C(=O)Nc1nnc(CCCCc2nnc(NC(=O)C(COC(=O)C3CCN(C(=O)OCc4ccccc4)CC3)c3ccccc3)s2)s1)c1ccccc1)C1CCN(C(=O)OCc2ccccc2)CC1 (centres unmarked) [compound 301]
- IC50 (P493-6 (myc "on") cells; [6]): 230 nM

SMILES: O=C(Nc1nnc(CCSCCc2nnc(NC(=O)C(c3ccccc3)N3CCNCC3)s2)s1)C(c1ccccc1)N1CCNCC1 (centres unmarked) [compound 79]
- IC50 (P493-6 (myc "on") cells; [6]): 20000 nM

SMILES: Nc1cccc2c1C(=O)N(C1CCC(=O)NC1=O)C2=O (centres unmarked) [pomalidomide]
- sensitivity of RPMI-8226 myeloma cells to the agent (RPMI-8226 cells): resistant

- IC50 [1]: 1000 nM
SMILES: O=C(Cc1cccc(F)c1)Nc1nnc(CCCCc2nnc(NC(=O)C[C@@H](O)C(=O)O)s2)s1 [compound 153]
- IC50 (P493-6 (myc "on") cells; [6]): > 50000 nM

- IC50 [1]: > 20000 nM
SMILES: O=C(Nc1nnc(CCCCc2nnc(NC(=O)[C@@H]3CC3c3ccccc3)s2)s1)C1C[C@H]1c1ccccc1 (some centres unmarked) [compound 90]

- IC50 [1]: 7000 nM
SMILES: O=C(COC(C(=O)Nc1nnc(CCCCc2nnc(NC(=O)C(COC(=O)C3CCNCC3)c3ccccc3)s2)s1)c1ccccc1)C1CCNCC1 (centres unmarked) [compound 302]
- IC50 (P493-6 (myc "on") cells; [6]): 870 nM

SMILES: CCOc1ccc(C(O)C(=O)Nc2nnc(CCCCc3ccc(NC(=O)Cc4ccccc4)nn3)s2)cc1 (centres unmarked) [compound 558]
- IC50 (P493-6 (myc "on") cells; [6]): 28 nM

SMILES: O=C(Cc1cccc(OC(F)(F)F)c1)Nc1ccc(CCCCc2nnc(NC(=O)Cc3ccccn3)s2)nn1 [compound 670]
- IC50 (P493-6 (myc "on") cells; read-out: Cell prolif P493 72h IC50, P493 cells, 72h): 30 nM
- reduction in tumor size, combination with lenalidomide vs either agent alone [2]: greater reduction in tumor size
- combination effect with lenalidomide in multiple myeloma cells [3]: synergizes
- combination effect with pomalidomide in multiple myeloma cells [3]: synergizes
- reduction in tumor size, combination with pomalidomide vs either agent alone [4]: greater reduction in tumor size

- IC50 [5]: 4 nM
SMILES: COC(=O)NCC1=CC(CC(=O)Nc2ccc(CCCCc3nnc(NC(=O)Cc4cccc(CNC(=O)OC)c4)s3)nn2)=CCC1 [compound 573]
- IC50 (P493-6 (myc "on") cells; [6]): 15 nM
